In patent publication US7138428B2, “Compounds isolated from gamboge resin having activity in inhibiting the growth of tumor/cancer cells and pharmaceutical compositions comprising the same” (Taiwan Sunpan Biotechnology Development Company, Ltd., priority 2004, dated 2006):

Columns and labels:
[1] = tested on: tumor/cancer cells; experiment: in vitro anti-cancer tests, overall statements; format: cell-based, human; details: summary of in vitro results
[2] = tested on: HepG2 (liver cancer); experiment: cells; details: for IC50 (50% cell growth inhibition concentration) / LC50 (50% cell destroying lethal concentration): HepG2
Source text: (§1) The cancer cell growth inhibition test was primarily used to detect the effect of a candidate drug on cancer cell proliferation. The working principle involved therein is the ability of viable cells to shift alamarBlue (Biosource, USA) from its originally non-fluorescent oxidized state to a reduced form (fluorescent, red) having fluorescence via metabolic reaction. According to the fluorescent data result generated by the alamarBlue reagent thus obtained, the proliferation of the viable cells and cell activity can be quantified for detection.
(§2) In this experiment, the assay concentrations of the candidate drug were set to be 0.01, 0.1, 1, 10, and 100 μg/ml, and the following cell lines were used: 6 human cancer cells MCF-7 (breast cancer), HT-29 (colon cancer), HL-60 (leukemia), HepG2 (liver cancer), A549 (lung cancer), and U937 (lymphoma cancer), and a normal human umbilical venal epithelial cell (HUVEC).
(§3) In order to further understand the bioactivity of the products TSB-0 to TSB-8 of this invention when they are used in combination, mixture formulations TSB-9, TSB-10, TSB-11, TSB-12 and TSB-13 were prepared according to Table 4 below.

[3] = tested on: HL-60 (leukemia); experiment: cells; details: for IC50 (50% cell growth inhibition concentration) / LC50 (50% cell destroying lethal concentration): HL-60
Source text: as §1, §2, §3

[4] = tested on: HT-29 (colon cancer); experiment: cells; details: for IC50 (50% cell growth inhibition concentration) / LC50 (50% cell destroying lethal concentration): HT-29
Source text: as §1, §2, §3

[5] = tested on: A549 (lung cancer); experiment: cells; details: for IC50 (50% cell growth inhibition concentration) / LC50 (50% cell destroying lethal concentration): A549
Source text: as §1, §2, §3

[6] = tested on: MCF-7 (breast cancer); experiment: cells; details: for IC50 (50% cell growth inhibition concentration) / LC50 (50% cell destroying lethal concentration): MCF-7
Source text: as §1, §2, §3

[7] = tested on: U937 (lymphoma cancer); experiment: cells; details: for IC50 (50% cell growth inhibition concentration) / LC50 (50% cell destroying lethal concentration): U937
Source text: as §1, §2, §3

[8] = tested on: normal human umbilical venal epithelial cell (HUVEC)
Source text: as §1, §2, §3

[9] = body weights of tumor-bearing test animals; format: in vivo, mice; details: 2 mg/kg × 5
Procedure: Mixture formulation TSB-9 was further subjected to an animal test, in which female mice (6–8 weeks old, weighing 20–22 grams) originally from C.B-17/Icr background and having Severe Combined Immune Deficiency (SCID) were used.
Human breast cancer cells MCF-7 (ATCC HTB-22) (1×10^7 cells/0.2 ml) were implanted subcutaneously into the dorsal side of the mice, and 50 μg/mouse of estradiol benzoate (Sigma, USA) was injected subcutaneously into the mice weekly as supplement for a total of 4 weeks. When the tumor growth reached ≧5 mm in diameter (that very day was denoted as day 1), tumor-bearing nude mice were randomly divided into 4 groups (6 mice in each group).
Mixture formulation TSB-9 was dissolved in 10% DMSO, and was administered orally to the mice every day at two dosages 40 mg/kg and 80 mg/kg, respectively, for a total of 21 consecutive days. […] This treatment group served as a positive control.
Measurements were taken once every 4 days during the experiment periods, and were recorded.

SMILES | IC50 (50% cell growth inhibition concentration) [2] | LC50 (50% cell destroying lethal concentration) [2] | IC50 (50% cell growth inhibition concentration) [3] | LC50 (50% cell destroying lethal concentration) [3] | IC50 (50% cell growth inhibition concentration) [4] | LC50 (50% cell destroying lethal concentration) [4] | IC50 (50% cell growth inhibition concentration) [5] | LC50 (50% cell destroying lethal concentration) [5] | IC50 (50% cell growth inhibition concentration) [6] | LC50 (50% cell destroying lethal concentration) [6] | IC50 (50% cell growth inhibition concentration) [7] | LC50 (50% cell destroying lethal concentration) [7] | IC50 (50% cell growth inhibition concentration) [8] | LC50 (50% cell destroying lethal concentration) [8] | further results
C=C(C)[C@@H]1CC[C@]2(CO)CC[C@]3(C)[C@H](CC[C@@H]4[C@@]5(C)CC[C@H](O)C(C)(C)[C@@H]5CC[C@]43C)[C@@H]12 [TSB-0, betulin] |  |  |  |  |  |  |  |  |  |  |  |  |  |  | effect of inhibiting tumor/cancer cell growth (in words) [1]: may not be as effective as products TSB-2 to TSB-8
C=C(C)[C@@H]1CC[C@]2(C(=O)O)CC[C@]3(C)[C@H](CC[C@@H]4[C@@]5(C)CC[C@H](O)C(C)(C)[C@@H]5CC[C@]43C)[C@@H]12 [TSB-1, betulinic acid] |  |  |  |  |  |  |  |  |  |  |  |  |  |  | effect of inhibiting tumor/cancer cell growth (in words) [1]: may not be as effective as products TSB-2 to TSB-8
CC(C)=CCc1c2c(c(O)c3c1OC14C(=CC5CC1C(C)(C)OC4(C/C=C(\C)C(=O)O)C5=O)C3=O)C=CC(C)(C)O2 (centres unmarked) [TSB-2, isomorellic acid] | 6.4 µg/mL | 33 µg/mL | 2.3 µg/mL | 43 µg/mL | 6.9 µg/mL | 12 µg/mL | 1.3 µg/mL | 4.6 µg/mL | 9.0 µg/mL | 24 µg/mL | 1.6 µg/mL | 6.1 µg/mL | 1.7 µg/mL | 22 µg/mL | 
CC(C)=CCC[C@]1(C)C=Cc2c(O)c3c(c(CC=C(C)C)c2O1)O[C@]12C(=C[C@@H]4C[C@H]1C(C)(C)O[C@@]2(C/C=C(\C)C(=O)O)C4=O)C3=O [TSB-3, isogambogic acid] | 1.2 µg/mL | 1.9 µg/mL | 0.97 µg/mL | 4.6 µg/mL | 6.4 µg/mL | 8.8 µg/mL | 0.88 µg/mL | 4.8 µg/mL | 1.6 µg/mL | 4.3 µg/mL | 0.82 µg/mL | 3.1 µg/mL | 1.1 µg/mL | 5.2 µg/mL | 
CC(C)=CCc1c(O)cc(O)c2c(=O)c3cc4c(c(O)c3oc12)OC(C)(C)C=C4 [TSB-4, 7,9,12-trihydroxy-2,2-dimethyl-10-(3-methyl-but-2-enyl)-2H-pyrano[3,2-b]xanthen-6-one] |  |  |  |  |  |  |  |  |  |  |  |  |  | 21 µg/mL | CC50 ([2]; Homo sapiens, HepG2, read-out: LC50 (50% cell destroying lethal concentration)): 24 µg/mL; CC50 ([3]; Homo sapiens, HL-60, read-out: LC50 (50% cell destroying lethal concentration)): 42 µg/mL; CC50 ([4]; Homo sapiens, HT-29, read-out: LC50 (50% cell destroying lethal concentration)): 59 µg/mL; CC50 ([5]; Homo sapiens, A549, read-out: LC50 (50% cell destroying lethal concentration)): 21 µg/mL; CC50 ([6]; Homo sapiens, MCF7, read-out: LC50 (50% cell destroying lethal concentration)): 40 µg/mL; CC50 ([7]; Homo sapiens, U-937, read-out: LC50 (50% cell destroying lethal concentration)): 28 µg/mL
CC(C)=CCC[C@]1(C)C=Cc2c(O)c3c(c(CC=C(C)C)c2O1)O[C@]12C(=C[C@@H]4C[C@H]1C(C)(C)O[C@@]2(C/C=C(/C)C(=O)O)C4=O)C3=O [TSB-5, gambogic acid] | 0.83 µg/mL | 2.7 µg/mL | 0.50 µg/mL | 5.2 µg/mL | 4.5 µg/mL | 7.1 µg/mL | 0.8 µg/mL | 2.9 µg/mL | 0.83 µg/mL | 2.7 µg/mL | 0.65 µg/mL | 3.1 µg/mL | 0.87 µg/mL | 3.6 µg/mL | 
CC(C)=CCc1c2c(c(O)c3c1OC14C(=CC5CC1C(C)(C)OC4(C/C=C(\C)CO)C5=O)C3=O)C=CC(C)(C)O2 (centres unmarked) [TSB-6, isomorellinol] | 1.2 µg/mL | 3.0 µg/mL | 1.4 µg/mL | 6.2 µg/mL | 5.2 µg/mL | 8.5 µg/mL | 2.0 µg/mL | 9.6 µg/mL | 0.90 µg/mL | 5.8 µg/mL | 1.3 µg/mL | 3.8 µg/mL | 1.5 µg/mL | 9.3 µg/mL | 
CC(C)=CCc1c2c(c(O)c3c1O[C@]14C(=C[C@@H]5C[C@H]1C(C)(C)O[C@@]4(C/C=C(/C)C(=O)O)C5=O)C3=O)C=CC(C)(C)O2 [TSB-7, morellic acid] | 1.7 µg/mL | 3.9 µg/mL | 1.2 µg/mL | 5.6 µg/mL | 2.8 µg/mL | 7.2 µg/mL | 0.76 µg/mL | 3.4 µg/mL | 0.98 µg/mL | 6.2 µg/mL | 1.6 µg/mL | 4.8 µg/mL | 0.88 µg/mL | 4.8 µg/mL | 
CC(C)=CCc1c2c(c(O)c3c1O[C@@]14C(=C[C@H]5CC1C(C)(C)O[C@]4(CC=C(C)C)C5=O)C3=O)C=CC(C)(C)O2 [TSB-8, desoxymorellin] | 3.9 µg/mL | 31 µg/mL | 6.5 µg/mL | >100 µg/mL | 6.7 µg/mL | 69 µg/mL | 4.8 µg/mL | 56 µg/mL | 5.3 µg/mL | 83 µg/mL | 6.2 µg/mL | >100 µg/mL | 2.8 µg/mL | 40 µg/mL | 
CO[C@@]12[C@H](COC(N)=O)C3=C(C(=O)C(C)=C(N)C3=O)N1C[C@@H]1N[C@@H]12 [mitomycin] |  |  |  |  |  |  |  |  |  |  |  |  |  |  | Weight (g) (mean ± SEM) ([9]; Day 1): 22.5 ± 0.6 g; Weight (g) (mean ± SEM) ([9]; Day 5): 20.8 ± 0.3 g; Weight (g) (mean ± SEM) ([9]; Day 9): 19.3 ± 0.4 g; Weight (g) (mean ± SEM) ([9]; Day 13): 19.2 ± 0.3 g; Weight (g) (mean ± SEM) ([9]; Day 17): 18.5 ± 0.2 g; Weight (g) (mean ± SEM) ([9]; Day 21): 17.5 ± 0.2 g; Weight (g) (mean ± SEM) ([9]; Day 25): 16.7 ± 0.2 g; Weight (g) (mean ± SEM) ([9]; Day 29): 16.7 ± 0.4 g
